Results as given in US10376476B2, “Panicein compounds, compositions and uses thereof” (CENTRE NATIONAL DE LA RECHERCHE SCIENTIFIQUE, priority 2014, dated 2019).

Tests used:
[1] = system: melanoma cells; test: Apoptosis by AnnexinV and DAPI co-staining; format: cell-based, human
Experimental: Cells were sampled after 24 h treatment with DMSO, paniceins and/or dxr, and apoptosis determined via AnnexinV and DAPI co-staining. Cells in early apoptosis are AnnexinV positive and DAPI negative, and cells in late apoptosis are AnnexinV and DAPI double positive. Histograms represent the mean percentage (+/−SEM) of cells in late apoptosis from three independent experiments and were analyzed using the Student t-test in which significance is attained at P<0.05 (*) (**: P<0.005).

[2] = system: Patched protein in MEWO and A375 cells; test: Western blotting of Patched after panicein treatment; format: cell-based, human; details: 24 hours, 10 μM
Experimental: Western-blotting on total extracts from MEWO and A375 cells after 24 h treatment with 10 μM of panicein A hydroquinone (P5) or with DMSO.
Total extracts from melanoma cells were prepared. Samples were separated on 8% SDS-PAGE and transferred to nitrocellulose membranes (Amersham) using standard techniques. After 1 hour at room temperature in blocking buffer (20 mmol/L Tris-HCl pH 7.5, 450 mmol/L NaCl, 0.1% Tween-20, and 4% non-fat milk), nitrocellulose membranes were incubated overnight at 4° C. with rabbit anti-Patched antiserum (Ab130.6 1:1000 generous gift from M. Ruat or Ab39266 from Abcam 1/1000) and monoclonal mouse anti-βtubulin antibody (Sigma; 1/1000). After 3 washes, membranes were incubated 45 min with anti-mouse (1:5000) or anti-rabbit (1:3000) immunoglobulin coupled to horseradish peroxidase (Dako). Detection was carried out with an ECL kit (Millipore) on a Las3000 (Fuji).

[3] = system: A375 cells; test: Doxorubicin efflux from melanoma cells (intracellular dxr fluorescence); format: cell-based, human; details: A375, loaded with 10 μM dxr, 10 μM compound, 30 min efflux
Experimental: (§1) A. Compound P5 inhibits doxorubicin efflux from melanoma cells MeWo and A375. Cells were grown on cover-slips, incubated for 2 hour at 37° C. with 10 μM doxorubicin and quickly rinsed with phosphate buffer (pH 7.4). One cover-slip of each cell line was immediately fixed for doxorubicin charge control. The other cover-slips were incubated with buffer supplemented with DMSO or 10 μM of compound P5 30 min under gentle shaking and immediately fixed. Dxr intracellular fluorescence was visualized by epifluorescence and analyzed using Image J software on more than 30 cells of 3 different fields for each condition. The results were analyzed using the Student t test in which significance is attained at P<0.05 (**: P<0.005, ***: P<0.0005). […] Dxr intracellular fluorescence quantification was carried out using Image J software on more than 30 yeasts on 3 different fields for each condition. The results were analyzed using the Student t test in which significance is attained at P<0.05 (*).
(§2) On melanoma cells: For doxorubicin incorporation in melanoma cells, the protocol was adapted from Bidet et al. (2012). […] Quantification of doxorubicin intracellular fluorescence was carried out using Image J software on more than 30 cells of 3 different fields for each condition. The results were analyzed using the Student t test in which significance is attained at P<0.05.

[4] = system: MeWo cells; test: as above; format: cell-based, human; details: loaded with 10 μM dxr, 10 μM compound, 30 min efflux
Experimental: as §1, §2

[5] = system: keratinocytes HaCaT; test: Doxorubicin efflux from cells (intracellular dxr fluorescence); format: cell-based

Compound: COc1cc(C)c(CC/C(C)=C/Cc2cc(O)ccc2O)c(C)c1C [P5, Panicein A hydroquinone]
- early apoptosis (Annexin V and DAPI labeling) ([1]; 24 h treatment with paniceins and/or dxr): increases early apoptosis
- number of apoptotic melanoma cells ([1]; 24 h treatment, AnnexinV and DAPI co-staining): strongly increases
- effect on Patched expression or degradation [2]: no effect
- increase of dxr in cells (dxr fluorescence intensity) after efflux [3]: about 25%
- increase of dxr in cells (dxr fluorescence intensity) after efflux [4]: about 25%
- increase of dxr in cells (dxr fluorescence intensity) after efflux [5]: contrary to “healthy” keratinocytes HaCaT
